Measurements published in US20040079671A1, “Medicinal product packaging” (priority 2002, published 2004).

Test: Accelerated stability at 56° C. of chlorobutanol and paraben test solution in untreated and fluorinated polypropylene bottles (HPLC concentration)
Assay type: physicochemical
Procedure: Polypropylene bottles (dropper-type) were obtained from Owens-Brockway, Ill. (capacity 5 ml). Some of the bottles were sent to a company called Fluoro-Seal (Columbus, Ohio) where they were treated for fluorine-coating under a proprietary method. After the bottles were ‘fluorosealed’ (done at ‘level 5’) they were washed in dilute soap solution rinsed several times in de-ionized water and dried before use. The bottles were then filled with 3 ml of a chlorobutanol and paraben test solution (Table 4). Control samples of untreated polypropylene bottles filled with the same solution were also prepared. All samples were prepared in duplicate and put up on accelerated stability at 56° C. Before putting on stability, ‘0’ time-point samples from all bottles were collected and the bottles were weighed. Concentration of cholorobutanol and methyl- and propyl parabens was determined by an HPLC method. Samples were taken at 1 wk, 2 wk and 4 wks by expelling ˜50-100 mcg droplets into tared vials. Bottles were weighed before and after sampling, before returning to condition. The following terms are used in Table 4, below. PP means polypropylene (untreated). PP-FL or PP-FL5 means fluorinated polypropylene at service provider's specified level of ‘5’. LDPE is low density polyethylene (untreated). LDPE-FL5 means low density polyethylene fluorinated at service provider's specified level of ‘5’. Duplicate samples were measured.

For `CCCOC(=O)c1ccc(O)cc1` [PROPYLPARABEN, propylparaben], the Conc. of propylparaben (bottle FL-5P P-2 (fluorinated polypropylene, level 5), time of storage 0 weeks) was 102 µg/mL, the Conc. of propylparaben (bottle FL-5P P-2 (fluorinated polypropylene, level 5), time of storage 1 week) was 95.3 µg/mL and the Conc. of propylparaben (bottle FL-5P P-2 (fluorinated polypropylene, level 5), time of storage 2 weeks) was 96.6 µg/mL. It also gave a Conc. of propylparaben (bottle FL-5P P-2 (fluorinated polypropylene, level 5), time of storage 4 weeks) of 94.6 µg/mL, a Conc. of propylparaben (bottle FL-5 PP-1 (fluorinated polypropylene, level 5), time of storage 0 weeks) of 104 µg/mL and a Conc. of propylparaben (bottle FL-5 PP-1 (fluorinated polypropylene, level 5), time of storage 1 week) of 95.3 µg/mL. It also gave a Conc. of propylparaben (bottle FL-5 PP-1 (fluorinated polypropylene, level 5), time of storage 2 weeks) of 96.6 µg/mL, a Conc. of propylparaben (bottle FL-5 PP-1 (fluorinated polypropylene, level 5), time of storage 4 weeks) of 89.3 µg/mL and a Conc. of propylparaben (bottle PP-1 (untreated polypropylene), time of storage 0 weeks) of 103 µg/mL. It also gave a Conc. of propylparaben (bottle PP-1 (untreated polypropylene), time of storage 1 week) of 86.2 µg/mL, a Conc. of propylparaben (bottle PP-1 (untreated polypropylene), time of storage 2 weeks) of 82.5 µg/mL and a Conc. of propylparaben (bottle PP-1 (untreated polypropylene), time of storage 4 weeks) of 69.5 µg/mL. The Conc. of propylparaben (bottle PP-2 (untreated polypropylene), time of storage 0 weeks) was 103 µg/mL, the Conc. of propylparaben (bottle PP-2 (untreated polypropylene), time of storage 1 week) was 86.9 µg/mL and the Conc. of propylparaben (bottle PP-2 (untreated polypropylene), time of storage 2 weeks) was 77.8 µg/mL. It also gave a Conc. of propylparaben (bottle PP-2 (untreated polypropylene), time of storage 4 weeks) of 65.1 µg/mL.
